Read-outs that look alike come from different tables or passages of the source.
Legend:
Assay type in all cases: cell-based
[1] = tested on: LAPC4 prostate cancer cells; test: Antiproliferative effects in LAPC4 cells (CellTiter Glo); conditions: LAPC4 cells (AKT1 E17K allele), read-out: LAPC4 proliferation IC50
In short: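 Luminescent ATP read-out (CellTiter Glo) after 72 h compound exposure; 1,000 cells/well in IMDM + 12% FBS + 1% P/S. IC50 by Hill equation fit of luminescence vs. log(inhibitor).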

AKT2 = biological target: T1, AKT2 (Homo sapiens, UniProt P31751); test: Live cell AKT2 target engagement by NanoBRET competitive probe displacement; conditions: HEK293 cells transfected with kinase-NanoLuciferase fusion, 2 h at 37° C.
T1 construct: expressed in transfected cells; host or cells: HEK293
T1 sequence (P31751 whole entry, the tested form may be a part): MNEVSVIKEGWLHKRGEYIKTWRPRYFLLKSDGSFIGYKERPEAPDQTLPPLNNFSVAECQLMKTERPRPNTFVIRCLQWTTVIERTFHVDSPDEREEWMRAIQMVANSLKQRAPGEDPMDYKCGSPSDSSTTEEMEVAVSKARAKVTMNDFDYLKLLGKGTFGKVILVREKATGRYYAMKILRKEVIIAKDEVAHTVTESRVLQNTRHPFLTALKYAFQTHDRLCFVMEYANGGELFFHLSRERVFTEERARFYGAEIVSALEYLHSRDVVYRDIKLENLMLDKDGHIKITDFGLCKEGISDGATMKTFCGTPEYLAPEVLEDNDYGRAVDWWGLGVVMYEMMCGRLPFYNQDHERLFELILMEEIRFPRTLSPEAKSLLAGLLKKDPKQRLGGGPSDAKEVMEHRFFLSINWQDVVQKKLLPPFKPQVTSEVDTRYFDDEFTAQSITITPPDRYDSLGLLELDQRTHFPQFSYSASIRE
In short: (§1)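 NanoLuc-kinase fusions, HEK293, transfected overnight; compound serial dilution + ATP-competitive fluorescent tracer at ~EC50; 2 h, 37 °C. Read 460/600 nm with extracellular NanoLuc inhibitor; BRET = E600/E460; IC50 by Hill fit.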

AKT1 E17K = biological target: T2, AKT1 E17K (Homo sapiens, UniProt P31749, E17K); test: Live cell AKT1 E17K target engagement by NanoBRET competitive probe displacement; conditions: HEK293 cells transfected with kinase-NanoLuciferase fusion, 2 h at 37° C.
T2 construct: expressed in transfected cells; host or cells: HEK293
T2 sequence (P31749 whole entry E17K, the tested form may be a part): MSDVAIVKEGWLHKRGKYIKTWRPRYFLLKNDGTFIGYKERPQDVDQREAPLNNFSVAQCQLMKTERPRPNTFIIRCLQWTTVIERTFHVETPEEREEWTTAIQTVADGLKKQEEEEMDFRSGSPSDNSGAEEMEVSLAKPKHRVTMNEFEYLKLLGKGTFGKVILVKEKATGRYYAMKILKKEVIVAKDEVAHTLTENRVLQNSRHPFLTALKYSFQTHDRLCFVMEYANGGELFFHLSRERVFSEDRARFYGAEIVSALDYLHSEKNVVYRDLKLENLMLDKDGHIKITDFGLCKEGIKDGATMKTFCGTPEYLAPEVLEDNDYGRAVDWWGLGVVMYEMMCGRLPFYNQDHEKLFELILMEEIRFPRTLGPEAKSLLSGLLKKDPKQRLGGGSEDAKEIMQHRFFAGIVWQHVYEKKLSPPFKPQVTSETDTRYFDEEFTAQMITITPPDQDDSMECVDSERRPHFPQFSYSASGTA
In short: as §1

AKT1 WT = biological target: T3, AKT1 WT (Homo sapiens, UniProt P31749); test: Live cell AKT1 WT target engagement by NanoBRET competitive probe displacement; conditions: HEK293 cells transfected with kinase-NanoLuciferase fusion, 2 h at 37° C.
T3 construct: expressed in transfected cells; host or cells: HEK293
T3 sequence (P31749 whole entry, the tested form may be a part): as the sequence (P31749 whole entry E17K, the tested form may be a part) above, with K17E counted along it
In short: as §1

Compound | IC50 ([1]; 72 h) [nM] | IC50 (AKT2) [nM] | IC50 (AKT1 E17K) [nM] | IC50 (AKT1 WT) [nM] | IC50 ([1]; Homo sapiens, LAPC4, 72 h) [nM]
C=CC(=O)N1CCC(N[C@H]2CCc3cc(-n4c(-c5cccnc5N)nc5ccc(-n6cccn6)nc54)ccc32)C(F)C1 (single isomer, unassigned) [Example 106, 1-((3*,4*)-4-(((S)-5-(2-(2-aminopyridin-3-yl)-5-(1H-pyrazol-1-yl)-3H-imidazo[4,5-b]pyridin-3-yl)-2,3-dihydro-1H-inden-1-yl)amino)-3-fluoropiperidin-1-yl)prop-2-en-1-one] | 93 | 120 | 20.3 | 3.85 | 
C=CC(=O)N1C[C@@H]2C[C@H]1CC2N[C@H]1CCc2cc(-n3c(-c4cccnc4N)nc4ccc(-n5cccn5)nc43)ccc21 (single isomer, unassigned) [Example 136, 1-[(1S,4S,5*)-5-{[(1S)-5-[2-(2-aminopyridin-3-yl)-5-(pyrazol-1-yl)imidazo[4,5-b]pyridin-3-yl]-2,3-dihydro-1H-inden-1-yl]amino}-2-azabicyclo[2.2.1]heptan-2-yl]prop-2-en-1-one] | 520 | 1950 | 211 | 95.8 | 
C=CC(=O)Nc1cc(O)ccc1C(=O)N[C@H]1CCc2cc(-n3c(-c4cccnc4N)nc4ccc(-n5cccn5)nc43)ccc21 [Example 70, N-[(1S)-5-[2-(2-aminopyridin-3-yl)-5-(pyrazol-1-yl)imidazo[4,5-b]pyridin-3-yl]-2,3-dihydro-1H-inden-1-yl]-4-hydroxy-2-(prop-2-enamido)benzamide] |  | 1340 | 288 | 83.7 | 1040
C=CC(=O)Nc1ccc(F)cc1C(=O)N[C@H]1CCc2cc(-n3c(-c4cccnc4N)nc4ccc(-n5cccn5)nc43)ccc21 [Example 20, N-[(1S)-5-[2-(2-aminopyridin-3-yl)-5-(pyrazol-1-yl)imidazo[4,5-b]pyridin-3-yl]-2,3-dihydro-1H-inden-1-yl]-5-fluoro-2-(prop-2-enamido)benzamide] |  | 20.2 | 9.64 | 7.5 | 18.3
C=CC(=O)Nc1ccccc1CN[C@H]1CCc2cc(-n3c(-c4cccnc4N)nc4ccc(-n5cccn5)nc43)ccc21 [Example 39, N-[2-({[(1S)-5-[2-(2-aminopyridin-3-yl)-5-(pyrazol-1-yl)imidazo[4,5-b]pyridin-3-yl]-2,3-dihydro-1H-inden-1-yl]amino}methyl)phenyl]prop-2-enamide] |  | 94.8 | 94.9 | 64.2 | 1600

Results, then the molecule that gave them:

IC50 ([1]; 72 h) [nM] | IC50 (AKT2) [nM] | IC50 (AKT1 E17K) [nM] | IC50 (AKT1 WT) [nM] | IC50 ([1]; Homo sapiens, LAPC4, 72 h) [nM] | Compound
 | > 10000 | > 1000 | > 1000 | > 10000 | C=CC(=O)N1CCC(N[C@H]2CCc3cc(-n4c(-c5ccccc5)nc5ccc(-n6cccn6)nc54)ccc32)CC1 [Example 152, (S)-1-(4-((5-(2-phenyl-5-(1H-pyrazol-1-yl)-3H-imidazo[4,5-b]pyridin-3-yl)-2,3-dihydro-1H-inden-1-yl)amino)piperidin-1-yl)prop-2-en-1-one]
 | 68.9 | 22.5 | 105 | 276 | C=CC(=O)N1CCC(N[C@H]2CCc3cc(-n4c(-c5cccnc5N)nc5ccc(N6CC[C@H](F)C6)nc54)ccc32)CC1 [Example 226, 1-(4-{[(1S)-5-[2-(2-aminopyridin-3-yl)-5-[(3S)-3-fluoropyrrolidin-1-yl]imidazo[4,5-b]pyridin-3-yl]-2,3-dihydro-1H-inden-1-yl]amino}piperidin-1-yl)prop-2-en-1-one]
1530 | 212 | 38 | 2090 |  | C=CC(=O)N1CCC(N[C@@H]2c3ccc(-n4c(-c5cccnc5N)nc5ccc(-n6cccn6)nc54)cc3CC2F)C(C)C1 (single isomer, unassigned) [Example 288, 1-[(3*,4*)-4-{[(1R,2*)-5-[2-(2-aminopyridin-3-yl)-5-(pyrazol-1-yl)imidazo[4,5-b]pyridin-3-yl]-2-fluoro-2,3-dihydro-1H-inden-1-yl]amino}-3-methylpiperidin-1-yl]prop-2-en-1-one]

— US12570655B2, “Cysteine covalent modifiers of AKT1 and uses thereof” (Terremoto Biosciences, Inc., priority 2023, dated 2026)
